Results on 10 compounds are retold here after ChEMBL document CHEMBL1201862, “PubChem BioAssay data set” (2004).

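Cells were grown in 96-well plates and exposed to each compound for 48 hours at five concentrations; endpoints were interpolated linearly between bracketing concentrations, or set to the highest concentration if not reached. GI50 marks 50% less growth.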 Active and inactive are the calls of the source. Cut-off read from the data, not from the text of the source: active = GI50 up to about 1.1 µM and inactive = higher.

Holding throughout (assay): inhibition of tumour cell growth, NCI panel, 48 h
Experiment [1] has as its system SK-MEL-2.
Experiment [2] relates to Hs-578T.
For experiment [3], the system named is BT-549.
Experiment [4] has as its system HCC 2998.
Experiment [5] relates to SK-MEL-28.
Experiment [6] has as its system SF-268.
In experiment [7] the test system is TK-10.
Experiment [8] deals with HCT-15.
Experiment [9] concerns HT-29.
For experiment [10], the system named is T47D.
Experiment [11] has as its system MOLT-4.
For experiment [12], the system named is NCI-H460.
For experiment [13], the system named is NCI-H522.
Experiment [14] relates to OVCAR-4.
The test system of experiment [15] is OVCAR-8.
The subject of experiment [16] is MDA-MB-435.
The subject of experiment [17] is M14.
Experiment [18] deals with SF-295.
Experiment [19] deals with LOX IMVI.
Experiment [20] concerns 786-0.

Consider `CNC(=O)OCc1nc(SSC(C)(C)C)n(C)c1COC(=O)NC`, for which the GI50 in experiment [1] is 8.02 µM (inactive); in [2], 2.22 µM (inactive); in experiment [3], 1.47 µM (inactive); in experiment [4] it was 8.91 µM (inactive); in experiment [5] it was 1.84 µM (inactive); in [6], 6.75 µM (inactive). Also, the GI50 in [7] is 6.11 µM (inactive); in experiment [8], 1.84 µM; in [9] it was 5.56 µM (inactive); in experiment [10], 2.81 µM (inactive); in experiment [11] it was 1.28 µM (inactive); in experiment [12], 10.7 µM (inactive). Further, the GI50 in experiment [13] is 1.16 µM (inactive); in experiment [14], 2.01 µM (inactive); in experiment [15] it was 2.07 µM (inactive); in experiment [16], 4.83 µM (inactive); in experiment [17] it was 1.71 µM (inactive); in [18] it was 17.1 µM (inactive). Besides, the figures for the GI50 in [19] and in [20] were 3.58 µM (inactive) and 3.06 µM (inactive), respectively.
Regarding `O=Cc1cc(C(=O)OCc2ccccc2)n(S(=O)(=O)c2ccccc2)c1`, the GI50 in experiment [1] was 16.8 µM (inactive); in experiment [2], 15.8 µM (inactive); in experiment [3], 16 µM (inactive); in experiment [4], 17 µM (inactive); in [5], 12.8 µM (inactive); in [6], 21.1 µM (inactive). In addition, the GI50 in experiment [7] was 24 µM (inactive); in [8], 11.1 µM; in experiment [9], 21.7 µM (inactive); in experiment [10], 30.5 µM (inactive); in [11], 23 µM (inactive); in experiment [12] it was 23.7 µM (inactive). In addition, the GI50 in experiment [13] was 40.4 µM (inactive); in experiment [14] it was 43.5 µM (inactive); in experiment [15], 31.9 µM (inactive); in [16], 2.29 µM (inactive); in experiment [17], 14.8 µM (inactive); in experiment [18], 14.4 µM (inactive). Moreover, the figures for the GI50 in [19] and in experiment [20] were 10.3 µM (inactive) and 30.7 µM (inactive), respectively.
Turning to `N=C(N)N/N=C/c1c(-c2ccc([N+](=O)[O-])cc2)nc2sc(Cl)cn12`, the GI50 in experiment [1] was 0.513 µM (active); in experiment [2] it was 1.03 µM (active); in experiment [3], 1.8 µM (inactive); in [4], 0.26 µM (active); in experiment [5], 1.69 µM (inactive); in experiment [6], 1.42 µM (inactive). Further, the GI50 in [7] was 2.05 µM (inactive); in experiment [8], 0.312 µM; in experiment [9], 1.18 µM (inactive); in [10] it was 0.92 µM (active); in [11], 0.247 µM (active); in [12], 1.73 µM (inactive). The GI50 is 1.48 µM (inactive) in experiment [13]; 0.441 µM (active) in [14]; 0.479 µM (active) in experiment [15]; 0.902 µM (active) in experiment [16]; 1.37 µM (inactive) in [17]; 1.17 µM (inactive) in experiment [18]. The GI50 in experiment [19] is 0.871 µM (active); in [20], 0.212 µM (active).
As for `CCCCCC(CO)C(O)(C(F)(F)F)C(F)(F)F` (stereo not given), the GI50 in [1], in experiment [2], in experiment [3], in experiment [4], in [5] and in experiment [6] was > 10 µM (inactive) in each case. The GI50 was > 10 µM (inactive) in experiment [7]; above 10 µM in experiment [8]; > 10 µM (inactive) in [9]; > 10 µM (inactive) in experiment [10]; > 10 µM (inactive) in experiment [11]; > 10 µM (inactive) in experiment [12]. The GI50 in [13], in experiment [14], in experiment [15], in [16], in [17] and in [18] was > 10 µM (inactive) each time. Moreover, the GI50 in experiment [19] and in [20] was > 10 µM (inactive) in each case.
As for `COc1ccc(C2SC(=N)Nc3c2c(C)nn3C(=O)c2ccc(Cl)cc2)cc1` (stereo not given), the GI50 in experiment [1], in experiment [2], in experiment [3], in experiment [4], in experiment [5] and in experiment [6] was > 10 µM (inactive) throughout. The GI50 is > 10 µM (inactive) in experiment [7]; above 10 µM in [8]; > 10 µM (inactive) in experiment [9]; > 10 µM (inactive) in [10]; > 10 µM (inactive) in experiment [11]; > 10 µM (inactive) in experiment [12]. Further, the GI50 in experiment [13], in experiment [14], in experiment [15], in [16], in experiment [17] and in [18] was > 10 µM (inactive) each time. For the same compound, the GI50 in experiment [19] and in experiment [20] was > 10 µM (inactive) throughout.
In the case of `CN(C)c1ccc([S+]([O-])Nc2ccccc2)cc1` (stereo not given), the GI50 in [1] is 35.8 µM (inactive); in experiment [2] it was 45 µM (inactive); in [3] it was 0.52 µM (active); in experiment [4], 34.6 µM (inactive); in experiment [5] it was > 100 µM (inactive); in experiment [6] it was 45.6 µM (inactive). Moreover, the GI50 in experiment [7] is > 100 µM (inactive); in [8], 11.6 µM; in experiment [9], 76.4 µM (inactive); in experiment [10], 19.1 µM (inactive); in experiment [11], 53.8 µM (inactive); in experiment [12] it was 27.5 µM (inactive). The GI50 is 13.2 µM (inactive) in experiment [13]; 45 µM (inactive) in [14]; 30.5 µM (inactive) in [15]; 21.1 µM (inactive) in experiment [16]; 38.5 µM (inactive) in experiment [17]; 48.8 µM (inactive) in [18]. In addition, the GI50 in [19] is 38.9 µM (inactive); in experiment [20], 35.4 µM (inactive).
With `Cc1cc(S(=O)(=O)Nc2nnc3c4ccccc4cnn23)c(S)cc1Cl`, the GI50 in experiment [1] is 31.6 µM (inactive); in experiment [2] it was 40.1 µM (inactive); in [3] it was > 54.5 µM (inactive); in experiment [4], 42.2 µM (inactive); in [5], > 100 µM (inactive); in experiment [6], 39.9 µM (inactive). Moreover, the GI50 in experiment [7] is > 100 µM (inactive); in experiment [8], above 58.6 µM; in experiment [9], > 100 µM (inactive); in experiment [10], 74.1 µM (inactive); in [11], > 100 µM (inactive); in [12], 31.3 µM (inactive). For the same compound, the GI50 was > 88.5 µM (inactive) in experiment [13]; > 100 µM (inactive) in [14]; > 100 µM (inactive) in [15]; > 84.3 µM (inactive) in experiment [16]; > 100 µM (inactive) in experiment [17]; 47.5 µM (inactive) in [18]. The GI50 in experiment [19] was > 100 µM (inactive); in experiment [20], > 74.3 µM (inactive).
As for `COc1ccc2c(c1)CN1C(=N2)CSC1c1c(Cl)cccc1[N+](=O)[O-]` (stereo not given), the GI50 is 17.5 µM (inactive) in [1]; 24.7 µM (inactive) in experiment [2]; 14.9 µM (inactive) in experiment [3]; 22.7 µM (inactive) in experiment [4]; 18.5 µM (inactive) in experiment [5]; 20 µM (inactive) in [6]. For the same compound, the GI50 is 28.2 µM (inactive) in experiment [7]; 16.6 µM in experiment [8]; 17.9 µM (inactive) in experiment [9]; 31 µM (inactive) in experiment [10]; 12.6 µM (inactive) in experiment [11]; 14.7 µM (inactive) in experiment [12]. The GI50 in experiment [13] is 23.7 µM (inactive); in experiment [14], 31.5 µM (inactive); in [15] it was 30.1 µM (inactive); in experiment [16], 20.1 µM (inactive); in [17] it was 18.3 µM (inactive); in experiment [18], 21.8 µM (inactive). The GI50 was 18.5 µM (inactive) in experiment [19] and 25.9 µM (inactive) in [20].
`CN(C)CC1CN(C(=O)Nc2ccccc2)C(=N)O1` (stereo not given): the GI50 in [1], in [2], in experiment [3], in [4], in [5] and in [6] was > 100 µM (inactive) throughout. For the same compound, the GI50 was > 100 µM (inactive) in experiment [7]; above 100 µM in [8]; > 100 µM (inactive) in experiment [9]; > 100 µM (inactive) in [10]; > 100 µM (inactive) in experiment [11]; > 100 µM (inactive) in [12]. Also, the GI50 in experiment [13], in experiment [14], in experiment [15], in experiment [16], in experiment [17] and in [18] was > 100 µM (inactive) each time. Further, the GI50 in experiment [19] and in experiment [20] was > 100 µM (inactive) in each case.
In the case of `COc1ccc(P2(=S)OCCOP(=S)(c3ccc(OC)cc3)S2)cc1` (stereo not given), the GI50 in experiment [1] was 3.51 µM (inactive); in experiment [2], 5.48 µM (inactive); in [3] it was 13.9 µM (inactive); in experiment [4] it was 2.87 µM (inactive); in experiment [5] it was 18.4 µM (inactive); in experiment [6], 3.99 µM (inactive). Besides, the GI50 in [7] is 16.3 µM (inactive); in [8], 2.29 µM; in experiment [9], 2.64 µM (inactive); in experiment [10] it was 41.8 µM (inactive); in experiment [11], 2.87 µM (inactive); in experiment [12] it was 2.65 µM (inactive). In addition, the GI50 in experiment [13] was 2.2 µM (inactive); in experiment [14] it was 12.3 µM (inactive); in [15] it was 3.47 µM (inactive); in experiment [16], 1.39 µM (inactive); in [17], 5.14 µM (inactive); in [18] it was 2.53 µM (inactive). The results for the GI50 in experiment [19] and in [20] were 2.84 µM (inactive) and 4.79 µM (inactive), respectively.
